pEC50, pIC50: −log10 of the molar value.
Tests used:
PARP-1 = PARP-1 (Homo sapiens (Human), UniProt P09874); assay: PARP-1 Enzyme Assay (HT Universal Colorimetric PARP Assay Kit); assay type: biochemical; conditions: OD450, read-out: IC50 (PARP-1 inhibition)
Description: Inhibition of PARP-1 enzymatic activities was measured using an HT Universal Colorimetric PARP Assay Kit (Trevigen, catalogue #4677-096-K) following the standard procedures.
Serial dilutions of PARP compounds were added to appropriate wells. The compound was incubated with PARP enzyme at RT for 10 min, and the reaction was initiated by addition of the PARP substrate cocktail, Each concentration of compound was tested in triplicate wells. After 15 min reaction, the reaction was stopped, and the Strep-HRP was added into each well and incubated for 1 h at RT. After addition of TACS-Sapphire™ colorimetric substrate and incubated in dark for 15 min, the OD450 was read out with an EnVision instrument. IC50 values (the concentration at which 50% of the enzyme activity is inhibited) were calculated, which are determined over a range of different concentrations, normally from 10 μM to 0.1 nM.

[1] = target: intracellular PARP enzyme (Homo sapiens, UniProt P09874); assay: PARP Cell Assay (IHC, intracellular poly(ADP)-ribose formation in C41 cells); assay type: cell-based; conditions: C41 cells (Human cervical carcinoma), 2 h compound, 1.0 mM H2O2 for 10 min; read-out: EC50 (TARP cell assay)
Description: Inhibition of intracellular PARP enzyme was determined using an immunohistochemistry (IHC) assay. The cellular assay measures the formation of poly (ADP)-ribose catalyzed by PARP inside cells.
Anti-PAR (Ab-1) Mouse mAb (10H) (Calbiochem, AM-80); Anti-Mouse IgG (whole molecule)-FITC antibody produced in goat (sigma, F2012); DAPI (sigma, D9542).
The C41 cells (Human cervical carcinoma; ATCC No. CRL-1594) were planted into 96-well plates at 8.0E4 cells/well and incubated at 37° C. overnight. Cells were washed with 37° C. warmed PBS once and treated with test compounds for 2 h in 96-well plates. Cells were washed with 37° C. warmed PBS once, and PARP was activated by damaging DNA with 1.0 mM H2O2 for 10 min. Cells were washed with ice-cold PBS once and fixed with pre-chilled methanol/acetone (7:3) at −20° C. for 10 min. After air-drying, plates were rehydrated with PBS and blocked using 5% nonfat dry milk in PBS-Tween (0.05%) (block solution) for 30 min at room temperature. […] After washing with PBS-Tween20.5 times, analysis was performed using Vector 3 Microplate Reader (PerkinElmer) set at the excitation (485 nm) and emission (535 nm) wavelength for FITC or the excitation (364 nm) and emission (454 nm) wavelength for DAPI. […]

Sequence of PARP-1 (P09874 whole entry): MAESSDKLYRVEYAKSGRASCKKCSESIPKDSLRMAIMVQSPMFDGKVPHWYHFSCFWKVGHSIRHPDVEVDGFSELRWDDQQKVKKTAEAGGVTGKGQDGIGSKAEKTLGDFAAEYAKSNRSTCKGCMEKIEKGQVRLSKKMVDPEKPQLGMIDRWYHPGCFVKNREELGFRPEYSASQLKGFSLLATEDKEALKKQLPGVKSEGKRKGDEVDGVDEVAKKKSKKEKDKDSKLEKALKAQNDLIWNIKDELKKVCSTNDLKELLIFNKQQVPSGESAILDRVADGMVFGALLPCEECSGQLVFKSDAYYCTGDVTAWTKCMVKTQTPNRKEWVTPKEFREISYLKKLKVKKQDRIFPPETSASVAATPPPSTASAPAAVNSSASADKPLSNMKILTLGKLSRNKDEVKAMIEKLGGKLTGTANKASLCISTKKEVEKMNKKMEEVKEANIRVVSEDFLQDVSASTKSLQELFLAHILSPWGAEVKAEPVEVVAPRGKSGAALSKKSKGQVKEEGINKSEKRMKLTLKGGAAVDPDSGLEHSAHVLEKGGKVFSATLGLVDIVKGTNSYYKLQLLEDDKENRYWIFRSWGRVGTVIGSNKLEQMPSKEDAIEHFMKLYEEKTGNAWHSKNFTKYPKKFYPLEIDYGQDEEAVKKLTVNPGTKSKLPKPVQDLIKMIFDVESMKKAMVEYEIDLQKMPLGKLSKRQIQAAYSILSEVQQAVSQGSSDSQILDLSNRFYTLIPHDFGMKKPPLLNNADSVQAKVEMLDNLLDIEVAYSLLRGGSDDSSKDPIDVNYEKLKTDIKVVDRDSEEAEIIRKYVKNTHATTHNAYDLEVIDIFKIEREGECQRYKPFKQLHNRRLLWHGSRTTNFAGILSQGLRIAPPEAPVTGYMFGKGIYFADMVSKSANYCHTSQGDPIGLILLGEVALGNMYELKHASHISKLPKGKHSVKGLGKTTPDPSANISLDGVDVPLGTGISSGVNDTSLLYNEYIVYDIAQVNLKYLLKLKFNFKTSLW
Sequence of intracellular PARP enzyme (P09874 2-1014 limits assumed): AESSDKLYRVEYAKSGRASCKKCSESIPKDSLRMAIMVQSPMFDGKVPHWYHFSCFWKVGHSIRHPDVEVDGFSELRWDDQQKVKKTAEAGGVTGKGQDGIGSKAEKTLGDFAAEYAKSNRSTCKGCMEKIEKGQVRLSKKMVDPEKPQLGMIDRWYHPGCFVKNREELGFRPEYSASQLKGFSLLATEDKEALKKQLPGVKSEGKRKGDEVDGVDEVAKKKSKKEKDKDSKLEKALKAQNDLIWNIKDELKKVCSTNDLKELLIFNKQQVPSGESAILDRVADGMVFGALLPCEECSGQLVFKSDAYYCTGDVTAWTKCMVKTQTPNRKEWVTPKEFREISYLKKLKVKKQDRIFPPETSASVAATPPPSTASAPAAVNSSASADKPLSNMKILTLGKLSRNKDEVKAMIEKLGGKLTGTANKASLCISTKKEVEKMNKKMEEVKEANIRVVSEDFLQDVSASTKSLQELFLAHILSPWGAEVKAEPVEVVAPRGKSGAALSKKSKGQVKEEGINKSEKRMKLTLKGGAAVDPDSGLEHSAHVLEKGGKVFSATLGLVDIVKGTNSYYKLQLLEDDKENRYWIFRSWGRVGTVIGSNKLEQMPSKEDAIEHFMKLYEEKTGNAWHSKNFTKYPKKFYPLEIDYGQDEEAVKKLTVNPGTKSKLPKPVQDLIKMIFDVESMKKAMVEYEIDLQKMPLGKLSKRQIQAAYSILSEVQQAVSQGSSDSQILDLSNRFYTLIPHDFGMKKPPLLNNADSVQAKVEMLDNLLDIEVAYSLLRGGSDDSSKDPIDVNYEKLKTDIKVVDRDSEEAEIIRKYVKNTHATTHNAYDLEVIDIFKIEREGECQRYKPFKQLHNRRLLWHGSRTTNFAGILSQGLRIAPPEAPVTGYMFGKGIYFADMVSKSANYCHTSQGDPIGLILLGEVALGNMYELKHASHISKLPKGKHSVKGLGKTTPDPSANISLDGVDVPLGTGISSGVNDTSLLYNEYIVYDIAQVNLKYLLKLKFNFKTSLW

Row | Compound | pIC50 (PARP-1) | pEC50 [1]
1 | CC(C)N1CCP(=O)(c2cc(Cc3n[nH]c(=O)c4ccccc34)ccc2F)CC1 [Example 42, 4-(4-fluoro-3-(1-isopropyl-4-oxido-1,4-azaphosphinan-4-yl)benzyl)phthalazin-1(2H)-one] | > 7.00 | –
2 | O=c1[nH]nc(Cc2ccc(F)c(P3(=O)CCN(CC4CC4)CC3)c2)c2ccccc12 [Example 43, 4-(3-(1-(cyclopropylmethyl)-4-oxido-1,4-azaphosphinan-4-yl)-4-fluorobenzyl)phthalazin-1(2H)-one] | > 7.00 | –
3 | CCCN1CCP(=O)(c2cc(Cc3n[nH]c(=O)c4ccccc34)ccc2F)CC1 [Example 45] | > 7.00 | –
4 | CC(C)(C)CN1CCP(=O)(c2cc(Cc3n[nH]c(=O)c4ccccc34)ccc2F)CC1 [Example 46, 4-(4-fluoro-3-(1-neopentyl-4-oxido-l,4-azaphosphinan-4-yl)benzyl)phthalazin-1(2H)-one] | > 7.00 | –
5 | CC(C)(C)CN1CCP(=O)(c2cc(Cc3n[nH]c(=O)c4ccccc34)ccc2F)CC1 [Example 47, 4-(4-fluoro-3-(1-neopentyl-4-oxido-1,4-azaphosphinan-4-yl)benzyl)phthalazin-1(2H)-one] | 6.00 to 7.00 | –
6 | CC(C)CCN1CCP(=O)(c2cc(Cc3n[nH]c(=O)c4ccccc34)ccc2F)CC1 [Example 48] | > 7.00 | 6.00 to 7.00
7 | O=c1[nH]nc(Cc2ccc(F)c(P3(=O)CCN(CC(F)(F)F)CC3)c2)c2ccccc12 [Example 49, 4-(4-fluoro-3-(4-oxido-1-(2,2,2-trifluoroethyl)-1,4-azaphosphinan-4-yl)benzyl)phthalazin-1(2H)-one] | > 7.00 | –
8 | CP1(=O)CCN(C(=O)c2cc(Cc3n[nH]c(=O)c4ccccc34)ccc2F)CC1 [Example 50, 4-[[4-fluoro-3-(4-methyl-4-oxo-1,4-azaphosphinane-1-carbonyl)phenyl]methyl]-2H-phthalazin-1-one] | > 7.00 | –
9 | O=c1[nH]nc(Cc2ccc(F)c(P3(=O)CCN(C4CC4)CC3)c2)c2ccc(F)cc12 [Example 54, 4-(3-(1-cyclopropyl-4-oxido-1,4-azaphosphinan-4-yl)-4-fluorobenzyl)-7-fluorophthalazin-1(2H)-one] | > 7.00 | –
10 | [2H]C([2H])(c1ccc(F)c(P2(=O)CCN(C3CC3)CC2)c1)c1n[nH]c(=O)c2cc(F)ccc12 [Example 55, 4-[(3-(1-cyclopropyl-4-oxido-1,4-azaphosphinan-4-yl)-4-fluorophenyl)dideuteromethyl]-7-fluorophthalazin-1 (2H)-one] | > 7.00 | –
11 | O=c1[nH]nc(Cc2ccc(F)c(P3(=O)CCN(c4ncccn4)CC3)c2)c2ccc(F)cc12 [Example 56, 4-(4-fluoro-3-(4-oxido-1-(pyrimidin-2-yl)-1,4-azaphosphinan-4-yl)benzyl)-7-fluorophthalazin-1(2H)-one] | > 7.00 | –
12 | [2H]C([2H])(c1ccc(F)c(P2(=O)CCN(c3ncccn3)CC2)c1)c1n[nH]c(=O)c2cc(F)ccc12 [Example 57, 4-[(4-fluoro-3-(4-oxido-1-(pyrimidin-2-yl)-1,4-azaphosphinan-4-yl)phenyl)dideuteromethyl]-7-fluorophthalazin-1(2H)-one] | > 7.00 | –
13 | O=c1[nH]nc(Cc2ccc(F)c(P3(=O)CCN(c4ncc(F)cn4)CC3)c2)c2ccccc12 [compound 35, 4-(4-fluoro-3-(4-oxido-1-(5-(fluoro)pyrimidin-2-yl)-1,4-azaphosphinan-4-yl)benzyl)phthalazin-1(2H)-one] | > 7.00 | –
14 | (+)-4-[[4-fluoro-3-(4-oxido-1-(pyrimidin-2-yl)-1,4-azaphosphinan-4-yl)phenyl)](hydroxymethyl)]-7-fluorophthalazin-1(2H)-one [Example 59] | > 7.00 | –

From patent US11248013B2, “Tricyclic inhibitors of poly(ADP-ribose)polymerase” (Rakovina Therapeutics Inc., priority 2011, dated 2022)
